Data reported in patent publication US20160367497A1, “METHODS AND COMPOSITIONS FOR TREATING NEUROPATHIES” (Washington University, priority 2007, published 2016).

Tests used:
AMPK [1] = assay: AMPK and ACC phosphorylation in cortical neurons; type: cell-based, mouse; settings: for effect on resveratrol-induced AMPK phosphorylation: cortical neurons, resveratrol 10 μM, 2 h
Excerpt: FIG. 16A-F illustrates that resveratrol activates AMP kinase in cortical neurons through Lkb1 and CaMKKβ. (A) Cortical neuron cultures were established from E 13.5 Lkb1 flox/flox embryos and infected with lentivirus expressing Cre recombinase (FCIV-Cre) or GFP only (FUGW control). Lentiviral infection of cortical neurons was monitored by GFP fluorescence (A). […] Lkb1 flox/flox cortical neurons were infected with FUGW or FCIV-Cre and treated as indicated. AMPK or ACC was immunoprecipitated from neuronal lysates and western blots were probed with the respective phospho-specific antibodies. […] Lysates from AICAR treated cortical neurons is included as a positive control. (E, F) Embryonic cortical neurons were cultured from wild type and SIRT1-deficient littermates derived from SIRT1 heterozygous matings. […] Levels of total AMPK and ACC are shown in the bottom panels of C, D, E and F.
Cell culture and Reagents. Neuro2 cells obtained from ATCC were grown in MEM with 1.5 g/L sodium bicarbonate, 0.1 mM nonessential amino acids, 0.1 mM sodium pyruvate, 2 mM L-glutamine with 10% FCS. For differentiation, cells were switched to serum-starvation medium (containing 0.2% FCS). For neurite outgrowth measurements, experiments were done in quadruplicate and 100 neurites per well were randomly measured using the Metamorph software. Dorsal root ganglia sensory and cortical neurons were established from E13.5 mouse embryos, maintained in neurobasal medium supplemented with B27 (and NGF for DRG neurons) and infected with lentiviruses as described (Araki et al., 2004, Science 305:1010-1013; Hawley et al., 2005, Cell Metab 2:21-23). Resveratrol was a gift from Sirtris Pharmaceuticals (Cambridge Mass.) and AICAR was obtained from Toronto Research (North York, Canada). Splitomycin and Compound C were purchased from Biomol (Plymouth Meeting, Pa.) and Calbiochem (San Diego, Calif.). Sirtinol and nicotinamide were purchased from Sigma (Saint Louis, Mo.)
Plasmids and viruses. The dominant negative (dnAMPK) and constitutively active (caAMPK) plasmids were gifts from Russell Jones (University of Pennsylvania, Philadelphia Pa.), and pCXN-Cre was a gift of Inder Verma (Salk Institute, San Diego, Calif.). All constructs were subcloned into the lentiviral shuttle vector FCIV and verified by nucleotide sequence analysis. Viruses were prepared as previously described (Araki et al., 2004, Science 305:1010-1013). Protein and mRNA analysis. Immunoprecipitations and western blot analysis were performed by standard methods using antibodies directed against total AMPK, phosphorylated AMPK, total ACC or phosphorylated ACC that were obtained from Cell Signaling Technology (Beverley, Mass.). The phospho-AMPK antibody detects endogenous AMPK α1 and α2 when phosphorylated at threonine 172. The LKB1 antibody was purchased from Upstate (Lake Placid, N.Y.). Quantitative RT-PCR analysis was performed using Sybr-Green methodology on a model 7700 instrument (Applied Biosystems) as previously described (Araki et al., 2004, Science 305:1010-1013). Primer sequences were those used in previous studies (Motoshima, et al., 2006, J Physiol 574:63-71).
Resveratrol activation of AMPK in Neuro2a cells along with the crucial role of AMPK in promoting neurite outgrowth in these cells encouraged us to examine this pathway in primary neurons. We treated E13.5 mouse dorsal root ganglia (DRG) sensory and cortical neuron cultures with resveratrol (10 μM) or AICAR (1 mM). […]

[2] = test system: acetyl Co-A carboxylase (ACC); assay: ACC phosphorylation in Neuro2a cells (phospho-specific western blot); type: cell-based; settings: resveratrol 10 μM or AICAR 1 mM; all time points to 72 hr
Protocol: FIG. 10A-D illustrates resveratrol activation of AMP kinase in Neuro2a cells. Neuro2a cells were switched to serum-starvation medium (medium containing 0.2% FCS) and treated with DMSO (vehicle control), resveratrol (10 μM) or 5-aminoimidazole-4-carboxamide-1-β-D-ribofuranoside (AICAR) (1 mM). […] Very low levels of phosphorylated AMPK and ACC were detected in DMSO treated control cells at all time points tested. (C) Densitometric analysis of changes in phosphorylated AMPK and (D) phosphorylated ACC under different conditions is shown.
Plasmids and viruses. […] Quantitative RT-PCR analysis was performed using Sybr-Green methodology on a model 7700 instrument (Applied Biosystems) as previously described (Araki et al., 2004, Science 305:1010-1013). […]
To explore the role of polyphenols, in particular, of resveratrol, we tested whether resveratrol altered the activity of AMPK in neuronal cells. […] To confirm that AMPK activation by resveratrol results in typical AMPK-mediated downstream responses, we monitored phosphorylation of ACC (acetyl Co-A carboxylase), a primary target of activated AMPK. […] To examine a potential mechanism of resveratrol-mediated AMPK activation, we measured cellular ATP levels as a decreased ATP:AMP ratio increases the phosphorylation of AMPK. […]

neuro2A cells = assay: cellular ATP levels, luciferase-based assay in neuro2A cells; type: cell-based
Protocol: To explore the role of polyphenols, in particular, of resveratrol, we tested whether resveratrol altered the activity of AMPK in neuronal cells. Neuro2a neuroblastoma cells were treated with resveratrol (10 μM) and AMPK activation was examined using phospho-AMPK specific antibodies. […] To confirm that AMPK activation by resveratrol results in typical AMPK-mediated downstream responses, we monitored phosphorylation of ACC (acetyl Co-A carboxylase), a primary target of activated AMPK. […] To examine a potential mechanism of resveratrol-mediated AMPK activation, we measured cellular ATP levels as a decreased ATP:AMP ratio increases the phosphorylation of AMPK. ATP levels were monitored using a luciferase-based assay in neuro2A cells treated with resveratrol or Oligomycin, an inhibitor of mitochondrial oxidative phosphorylation and therefore ATP production. While the ATP concentration dropped from 5.874 μM in DMSO-treated cells (control) to 0.976 μM in Oligomycin treated cells within 2 hr, the ATP concentration in resveratrol-treated Neuro2a cells was not altered from control either at 2 hr (6.33 μM) or 24 hr (6.42 μM).

AMPK [3] = assay: AMPK phosphorylation in brain after intraperitoneal injection; type: in vivo, mice; settings: single intraperitoneal injection 20 mg/kg; within 2 h
Protocol: (§1) FIG. 15A-E illustrates that resveratrol treatment causes AMPK phosphorylation in the brain. Two-month-old male mice were injected intraperitoneally with resveratrol (20 mg/kg body weight) or DMSO (vehicle) (n=3, for each treatment). Two hr after treatment, the animals were sacrificed and brain lysates were prepared. […] Total AMPK and ACC levels are shown as loading controls in B and D. (E) Densitometry was used to quantify the increased level of AMPK and ACC phosphorylation in the brain of resveratrol treated animals (* p<0.005).
(§2) To extend our in vitro results, we tested whether treating mice with resveratrol activates AMPK in the brain. We injected intraperitoneally 2-month-old male mice with either resveratrol (20 mg/kg body weight) or DMSO (vehicle) (n=3 for each group).

ACC = ACC phosphorylation in brain after intraperitoneal injection; type: in vivo, mice; settings: single intraperitoneal injection 20 mg/kg; within 2 h
Protocol: as §1, §2

Structure (SMILES): NC(=O)c1cccnc1 [Nam, nicotinamide]
- effect on resveratrol-induced AMPK phosphorylation (AMPK [1]): none of the SIRT inhibitors

Structure (SMILES): O=C(O)c1ccc2c3c1cccc3c(=O)n1c3ccccc3nc21 [STO 609]
- effect on resveratrol-induced AMPK phosphorylation (AMPK [1]): did inhibit AMPK and ACC phosphorylation

Structure (SMILES): CC(NC(=O)c1ccccc1/N=C/c1c(O)ccc2ccccc12)c1ccccc1 (stereo not shown) [Sirtinol]
- effect on resveratrol-induced AMPK phosphorylation (AMPK [1]): none of the SIRT inhibitors

Structure (SMILES): Oc1ccc(C=Cc2cc(O)cc(O)c2)cc1 [resveratrol]
- ACC phosphorylation [2]: robust phosphorylation of ACC
- ATP concentration (neuro2A cells; 2 hr): 6.33 µM
- ATP concentration (neuro2A cells; 24 hr): 6.42 µM
- increased AMPK phosphorylation in the brain (AMPK [3]): 2.5 fold
- increased ACC phosphorylation in the brain (ACC): 2.1 fold
- phosphorylation of AMPK and ACC (AMPK [1]; E13.5 cortical neurons, 10 μM): stimulated phosphorylation of AMPK and ACC

Structure (SMILES): O=C1CCc2c(ccc3ccccc23)O1 [splitomycin]
- effect on resveratrol-induced AMPK phosphorylation (AMPK [1]): none of the SIRT inhibitors
